# Reference: PubChem BioAssay AID1963842 (Molecular Pharmacology Branch, DTP, NCI, 2024)
# System: 677734-321-R-J1-PDC complex spheroid viability
# Experiment: Anticancer human tumor 677734-321-R-J1-PDC patient-derived soft tissue sarcoma cell line growth inhibition [POLQ]
# Conditions: for IC50: curve of first compound; for viability, T/C: stronger effect = lower value
# Procedure, shortened: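 Complex spheroid viability model combining PDC tumour cells with endothelial (HUVEC) and MSC stromal cells. Novobiocin, ART-558 or RP6685 were tested singly and in combination with standard and investigational anticancer drugs. Each was titrated in half-log steps from near clinical Cmax, or from 10 microM where Cmax was unknown.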
# [1] = second compound 0.0316 µM, first compound 0.0316 µM
# [2] = second compound 0.0316 µM, first compound 0.1 µM
# [3] = second compound 0.0316 µM, first compound 0.316 µM
# [4] = second compound 0.0316 µM, first compound 1 µM
# [5] = second compound 0.0316 µM, first compound 3.16 µM
# [6] = second compound 0.0316 µM, first compound 10 µM
# [7] = second compound 0.1 µM, first compound 0.0316 µM
# [8] = second compound 0.1 µM, first compound 0.1 µM
# [9] = second compound 0.1 µM, first compound 0.316 µM
# [10] = second compound 0.1 µM, first compound 1 µM
# [11] = second compound 0.1 µM, first compound 3.16 µM
# [12] = second compound 0.1 µM, first compound 10 µM
# [13] = second compound 0.316 µM, first compound 0.0316 µM
# [14] = second compound 0.316 µM, first compound 0.1 µM
# [15] = second compound 0.316 µM, first compound 0.316 µM
# [16] = second compound 0.316 µM, first compound 1 µM
# [17] = second compound 0.316 µM, first compound 3.16 µM
# [18] = second compound 0.316 µM, first compound 10 µM
# [19] = second compound 1 µM, first compound 0.0316 µM
# [20] = second compound 1 µM, first compound 0.1 µM
# [21] = second compound 1 µM, first compound 0.316 µM
# [22] = second compound 1 µM, first compound 1 µM
# [23] = second compound 1 µM, first compound 3.16 µM
# [24] = second compound 1 µM, first compound 10 µM
# [25] = second compound 3.16 µM, first compound 0.0316 µM
# [26] = second compound 3.16 µM, first compound 0.1 µM
# [27] = second compound 3.16 µM, first compound 0.316 µM
# [28] = second compound 3.16 µM, first compound 1 µM
# [29] = second compound 3.16 µM, first compound 3.16 µM
# [30] = second compound 3.16 µM, first compound 10 µM
# [31] = second compound 10 µM, first compound 0.0316 µM
# [32] = second compound 10 µM, first compound 0.1 µM
# [33] = second compound 10 µM, first compound 0.316 µM
# [34] = second compound 10 µM, first compound 1 µM
# [35] = second compound 10 µM, first compound 3.16 µM
# [36] = second compound 10 µM, first compound 10 µM
# 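Further: spheroids exposed to compounds for one week.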
# 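Wherever viability, T/C is given: 100% = vehicle DMSO treated spheroids.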
structure (smiles),measurement,setting,value
CC1COCCN1c1cc(C2(O)CC3CCC(C2)O3)c2cnn(-c3ccn[nH]3)c2n1 (stereo unspecified) + COC1C(OC(N)=O)C(O)C(Oc2ccc3c(O)c(NC(=O)c4ccc(O)c(CC=C(C)C)c4)c(=O)oc3c2C)OC1(C)C,IC50,second compound 0.0316 µM,131 nM
same,IC50,second compound 0.1 µM,150 nM
same,IC50,second compound 0.316 µM,87.2 nM
same,IC50,second compound 1 µM,115 nM
same,IC50,second compound 3.16 µM,97 nM
same,IC50,second compound 10 µM,85.8 nM
same,"viability, T/C",[1],87.1%
same,"viability, T/C",[2],58.1%
same,"viability, T/C",[3],24.2%
same,"viability, T/C",[4],16.8%
same,"viability, T/C",[5],17.9%
same,"viability, T/C",[6],16.3%
same,"viability, T/C",[7],92.9%
same,"viability, T/C",[8],64.7%
same,"viability, T/C",[9],22.7%
same,"viability, T/C",[10],16.4%
same,"viability, T/C",[11],13.5%
same,"viability, T/C",[12],13.3%
same,"viability, T/C",[13],80.2%
same,"viability, T/C",[14],46.2%
same,"viability, T/C",[15],22.6%
same,"viability, T/C",[16],19.1%
same,"viability, T/C",[17],14.7%
same,"viability, T/C",[18],13.8%
same,"viability, T/C",[19],92.5%
same,"viability, T/C",[20],54.2%
same,"viability, T/C",[21],18.6%
same,"viability, T/C",[22],15.9%
same,"viability, T/C",[23],17.1%
same,"viability, T/C",[24],14.2%
same,"viability, T/C",[25],85.3%
same,"viability, T/C",[26],49%
same,"viability, T/C",[27],25.4%
same,"viability, T/C",[28],16.7%
same,"viability, T/C",[29],15.2%
same,"viability, T/C",[30],14.6%
same,"viability, T/C",[31],89.6%
same,"viability, T/C",[32],43.9%
same,"viability, T/C",[33],21.3%
same,"viability, T/C",[34],15.6%
same,"viability, T/C",[35],16.1%
same,"viability, T/C",[36],15.4%
Nc1ccn(C2OC(CO)C(O)C2(F)F)c(=O)n1 (stereo unspecified) + Cc1cccc(N(C)C(=O)C2C(O)CCN2c2nc(C)cc(C(F)(F)F)c2C#N)c1,IC50,second compound 0.0316 µM,< 31.6 nM
same,IC50,second compound 0.1 µM,< 31.6 nM
same,IC50,second compound 0.316 µM,< 31.6 nM
same,IC50,second compound 1 µM,< 31.6 nM
same,IC50,second compound 3.16 µM,< 31.6 nM
same,IC50,second compound 10 µM,< 31.6 nM
same,"viability, T/C",[1],38.5%
same,"viability, T/C",[2],15.2%
same,"viability, T/C",[3],14.2%
same,"viability, T/C",[4],14.7%
same,"viability, T/C",[5],14.9%
same,"viability, T/C",[6],10.1%
same,"viability, T/C",[7],43.5%
same,"viability, T/C",[8],15.1%
same,"viability, T/C",[9],13.7%
same,"viability, T/C",[10],15.4%
same,"viability, T/C",[11],15.8%
same,"viability, T/C",[12],11%
same,"viability, T/C",[13],31.8%
same,"viability, T/C",[14],22%
same,"viability, T/C",[15],14.1%
same,"viability, T/C",[16],16.9%
same,"viability, T/C",[17],12.4%
same,"viability, T/C",[18],10.8%
same,"viability, T/C",[19],30.9%
same,"viability, T/C",[20],18.4%
same,"viability, T/C",[21],14.3%
same,"viability, T/C",[22],15.4%
same,"viability, T/C",[23],19.6%
same,"viability, T/C",[24],12%
same,"viability, T/C",[25],35.2%
same,"viability, T/C",[26],14.9%
same,"viability, T/C",[27],14.6%
same,"viability, T/C",[28],13.5%
same,"viability, T/C",[29],13.3%
same,"viability, T/C",[30],13%
same,"viability, T/C",[31],39.8%
same,"viability, T/C",[32],17.3%
same,"viability, T/C",[33],15.3%
same,"viability, T/C",[34],13.7%
same,"viability, T/C",[35],13.3%
same,"viability, T/C",[36],12.2%
COc1ccc([C@@H](O)c2cc(-c3ncnc4cc(N5CCOCC5)ccc34)c(F)cc2Cl)nn1 + COC1C(OC(N)=O)C(O)C(Oc2ccc3c(O)c(NC(=O)c4ccc(O)c(CC=C(C)C)c4)c(=O)oc3c2C)OC1(C)C,IC50,second compound 0.0316 µM,> 10000 nM
same,IC50,second compound 0.1 µM,9810 nM
same,IC50,second compound 0.316 µM,9580 nM
same,IC50,second compound 1 µM,> 10000 nM
same,IC50,second compound 3.16 µM,> 10000 nM
same,IC50,second compound 10 µM,> 10000 nM
same,"viability, T/C",[1],106%
same,"viability, T/C",[2],112%
same,"viability, T/C",[3],99.7%
same,"viability, T/C",[4],105%
same,"viability, T/C",[5],82.1%
same,"viability, T/C",[6],56.9%
same,"viability, T/C",[7],112%
same,"viability, T/C",[8],107%
same,"viability, T/C",[9],100%
same,"viability, T/C",[10],98.2%
same,"viability, T/C",[11],83.8%
same,"viability, T/C",[12],48.8%
same,"viability, T/C",[13],110%
same,"viability, T/C",[14],104%
same,"viability, T/C",[15],104%
same,"viability, T/C",[16],98.4%
same,"viability, T/C",[17],82.5%
same,"viability, T/C",[18],48.6%
same,"viability, T/C",[19],111%
same,"viability, T/C",[20],102%
same,"viability, T/C",[21],97.3%
same,"viability, T/C",[22],100%
same,"viability, T/C",[23],79.4%
same,"viability, T/C",[24],52.5%
same,"viability, T/C",[25],107%
same,"viability, T/C",[26],106%
same,"viability, T/C",[27],106%
same,"viability, T/C",[28],93.1%
same,"viability, T/C",[29],79.5%
same,"viability, T/C",[30],56.1%
same,"viability, T/C",[31],111%
same,"viability, T/C",[32],105%
same,"viability, T/C",[33],104%
same,"viability, T/C",[34],108%
same,"viability, T/C",[35],85.1%
same,"viability, T/C",[36],50.9%
